Assay results: PubChem BioAssay AID1963427 (Molecular Pharmacology Branch, DTP, NCI, 2024)
Several values for one entry are separate records, joined by “and”; a condition that tells them apart may be missing. Identical values can stand only once.

System: 317291-083-R-J1-PDC complex spheroid growth
Assay: Anticancer human tumor 317291-083-R-J1-PDC patient-derived soft tissue sarcoma cell line growth inhibition [Asc]
Settings: for viability, T/C: stronger effect = lower value
In short: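 Complex spheroids combining tumor cells with HUVEC endothelial cells and human MSCs, at 37 degrees C, 5% CO2; agents tested alone or combined, half-log dilutions from at or near clinical Cmax, or 10 microM if Cmax unknown.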

[1] = curve of first compound, second compound 0.0316 µM
[2] = curve of first compound, second compound 0.1 µM
[3] = curve of first compound, second compound 0.316 µM
[4] = curve of first compound, second compound 1 µM
[5] = curve of first compound, second compound 3.16 µM
[6] = curve of first compound, second compound 10 µM
[7] = second compound 0.0316 µM, first compound 0.0316 µM
[8] = second compound 0.0316 µM, first compound 0.1 µM
[9] = second compound 0.0316 µM, first compound 0.316 µM
[10] = second compound 0.0316 µM, first compound 1 µM
[11] = second compound 0.1 µM, first compound 0.0316 µM
[12] = second compound 0.1 µM, first compound 0.1 µM
[13] = second compound 0.1 µM, first compound 0.316 µM
[14] = second compound 0.1 µM, first compound 1 µM
[15] = second compound 0.316 µM, first compound 0.0316 µM
[16] = second compound 0.316 µM, first compound 0.1 µM
[17] = second compound 0.316 µM, first compound 0.316 µM
[18] = second compound 0.316 µM, first compound 1 µM
[19] = second compound 1 µM, first compound 0.0316 µM
[20] = second compound 1 µM, first compound 0.1 µM
[21] = second compound 1 µM, first compound 0.316 µM
[22] = second compound 1 µM, first compound 1 µM
[23] = second compound 3.16 µM, first compound 0.0316 µM
[24] = second compound 3.16 µM, first compound 0.1 µM
[25] = second compound 3.16 µM, first compound 0.316 µM
[26] = second compound 3.16 µM, first compound 1 µM
[27] = second compound 10 µM, first compound 0.0316 µM
[28] = second compound 10 µM, first compound 0.1 µM
[29] = second compound 10 µM, first compound 0.316 µM
[30] = second compound 10 µM, first compound 1 µM
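Also: compound exposure lasted seven days after spheroids formed for three days.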
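For viability, T/C in this document: 100% = DMSO vehicle control wells.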

Cc1nc(N2CCC3(CC2)COC(C)C3N)c(CO)nc1Sc1ccnc(N)c1Cl (stereo not drawn) + CCN1C(C(=O)NC23CCC(C(=O)O)(CC2)CC3)C(c2cccc(Cl)c2F)C2(C(=O)Nc3cc(Cl)ccc32)C12CCCCC2
IC50 (curve of first compound, second compound 0.00949 µM): > 3000 nM
IC50 (curve of first compound, second compound 0.03 µM): 2830 nM
IC50 (curve of first compound, second compound 0.0949 µM): > 3000 nM
IC50 (curve of first compound, second compound 0.3 µM): > 3000 nM
IC50 (curve of first compound, second compound 0.949 µM): > 3000 nM
IC50 (curve of first compound, second compound 3 µM): 2740 nM
viability, T/C (second compound 0.00949 µM, first compound 0.00949 µM): 103%
viability, T/C (second compound 0.00949 µM, first compound 0.03 µM): 96%
viability, T/C (second compound 0.00949 µM, first compound 0.0949 µM): 94.9%
viability, T/C (second compound 0.00949 µM, first compound 0.3 µM): 74.2%
viability, T/C (second compound 0.00949 µM, first compound 0.949 µM): 95.7%
viability, T/C (second compound 0.00949 µM, first compound 3 µM): 53.6%
viability, T/C (second compound 0.03 µM, first compound 0.00949 µM): 108%
viability, T/C (second compound 0.03 µM, first compound 0.03 µM): 107%
viability, T/C (second compound 0.03 µM, first compound 0.0949 µM): 96.7%
viability, T/C (second compound 0.03 µM, first compound 0.3 µM): 90.8%
viability, T/C (second compound 0.03 µM, first compound 0.949 µM): 69%
viability, T/C (second compound 0.03 µM, first compound 3 µM): 49%
viability, T/C (second compound 0.0949 µM, first compound 0.00949 µM): 104%
viability, T/C (second compound 0.0949 µM, first compound 0.03 µM): 116%
viability, T/C (second compound 0.0949 µM, first compound 0.0949 µM): 92.5%
viability, T/C (second compound 0.0949 µM, first compound 0.3 µM): 78.9%
viability, T/C (second compound 0.0949 µM, first compound 0.949 µM): 70.8%
viability, T/C (second compound 0.0949 µM, first compound 3 µM): 69.4%
viability, T/C (second compound 0.3 µM, first compound 0.00949 µM): 120%
viability, T/C (second compound 0.3 µM, first compound 0.03 µM): 106%
viability, T/C (second compound 0.3 µM, first compound 0.0949 µM): 95.5%
viability, T/C (second compound 0.3 µM, first compound 0.3 µM): 97.9%
viability, T/C (second compound 0.3 µM, first compound 0.949 µM): 73.7%
viability, T/C (second compound 0.3 µM, first compound 3 µM): 56.1%
viability, T/C (second compound 0.949 µM, first compound 0.00949 µM): 86.1%
viability, T/C (second compound 0.949 µM, first compound 0.03 µM): 113%
viability, T/C (second compound 0.949 µM, first compound 0.0949 µM): 93.4%
viability, T/C (second compound 0.949 µM, first compound 0.3 µM): 84.8%
viability, T/C (second compound 0.949 µM, first compound 0.949 µM): 75.7%
viability, T/C (second compound 0.949 µM, first compound 3 µM): 59.2%
viability, T/C (second compound 3 µM, first compound 0.00949 µM): 82.2%
viability, T/C (second compound 3 µM, first compound 0.03 µM): 81.7%
viability, T/C (second compound 3 µM, first compound 0.0949 µM): 82.8%
viability, T/C (second compound 3 µM, first compound 0.3 µM): 82.3%
viability, T/C (second compound 3 µM, first compound 0.949 µM): 66.7%
viability, T/C (second compound 3 µM, first compound 3 µM): 48.5%

O=C(c1cc(Cc2n[nH]c(=O)c3ccccc23)ccc1F)N1CCN(C(=O)C2CC2)CC1
viability, T/C (compound 0.0316 µM): 106% and 111% and 91.2%
viability, T/C (compound 0.1 µM): 76.1% and 100% and 97%
viability, T/C (compound 0.316 µM): 110% and 87.8% and 93.8%
viability, T/C (compound 1 µM): 83% and 101% and 88.7%
viability, T/C (compound 3.16 µM): 82.7% and 84.3% and 47.8%
viability, T/C (compound 10 µM): 42.5% and 46.9% and 32.5%
IC50 (curve of compound): 8070 nM and 9240 nM and 2970 nM

C=CC(=O)N1CCN(c2nc(=O)n(-c3c(C)ccnc3C(C)C)c3nc(-c4c(O)cccc4F)c(F)cc23)C(C)C1 (stereo not drawn) + Cc1c(S(C)(=O)=O)c(-c2cc(F)cc(N3CCN(c4ccc(NS(=O)(=O)c5ccc(NC(CCN6CCC(C(=O)OCCCP(=O)(O)O)CC6)CSc6ccccc6)c(S(=O)(=O)C(F)(F)F)c5)cc4)CC3)c2)c(-c2ccc(Cl)cc2)n1C(C)C
IC50 [1]: > 10000 nM
IC50 [2]: > 10000 nM
IC50 [3]: > 10000 nM
IC50 [4]: > 10000 nM
IC50 [5]: 8050 nM
IC50 [6]: 9460 nM
viability, T/C [7]: 108%
viability, T/C [8]: 86.8%
viability, T/C [9]: 108%
viability, T/C [10]: 98.3%
viability, T/C (second compound 0.0316 µM, first compound 3.16 µM): 98.3%
viability, T/C (second compound 0.0316 µM, first compound 10 µM): 66.1%
viability, T/C [11]: 84.4%
viability, T/C [12]: 97.7%
viability, T/C [13]: 86.1%
viability, T/C [14]: 86.5%
viability, T/C (second compound 0.1 µM, first compound 3.16 µM): 100%
viability, T/C (second compound 0.1 µM, first compound 10 µM): 60.1%
viability, T/C [15]: 91%
viability, T/C [16]: 102%
viability, T/C [17]: 85.3%
viability, T/C [18]: 90.6%
viability, T/C (second compound 0.316 µM, first compound 3.16 µM): 83.9%
viability, T/C (second compound 0.316 µM, first compound 10 µM): 59.7%
viability, T/C [19]: 81.5%
viability, T/C [20]: 84.3%
viability, T/C [21]: 96.2%
viability, T/C [22]: 80.2%
viability, T/C (second compound 1 µM, first compound 3.16 µM): 81.7%
viability, T/C (second compound 1 µM, first compound 10 µM): 51.7%
viability, T/C [23]: 82.4%
viability, T/C [24]: 70.7%
viability, T/C [25]: 87.8%
viability, T/C [26]: 74.7%
viability, T/C (second compound 3.16 µM, first compound 3.16 µM): 79.5%
viability, T/C (second compound 3.16 µM, first compound 10 µM): 43.2%
viability, T/C [27]: 87.1%
viability, T/C [28]: 90.6%
viability, T/C [29]: 93.2%
viability, T/C [30]: 88.6%
viability, T/C (second compound 10 µM, first compound 3.16 µM): 96.6%
viability, T/C (second compound 10 µM, first compound 10 µM): 47.9%

COc1c(OCCCN2CCOCC2)ccc2c3n(c(=NC(=O)c4cnc(N)nc4)nc12)CCN3 + Cc1c(S(C)(=O)=O)c(-c2cc(F)cc(N3CCN(c4ccc(NS(=O)(=O)c5ccc(NC(CCN6CCC(C(=O)OCCCP(=O)(O)O)CC6)CSc6ccccc6)c(S(=O)(=O)C(F)(F)F)c5)cc4)CC3)c2)c(-c2ccc(Cl)cc2)n1C(C)C
IC50 [1]: 104 nM
IC50 [2]: 88 nM
IC50 [3]: 88.4 nM
IC50 [4]: 78 nM
IC50 [5]: 62.9 nM
IC50 [6]: 95.3 nM
viability, T/C (second compound 0.0316 µM, first compound 0.00316 µM): 116%
viability, T/C (second compound 0.0316 µM, first compound 0.01 µM): 116%
viability, T/C [7]: 78%
viability, T/C [8]: 52.9%
viability, T/C [9]: 27%
viability, T/C [10]: 13%
viability, T/C (second compound 0.1 µM, first compound 0.00316 µM): 106%
viability, T/C (second compound 0.1 µM, first compound 0.01 µM): 76.6%
viability, T/C [11]: 62.5%
viability, T/C [12]: 54.7%
viability, T/C [13]: 28.1%
viability, T/C [14]: 13.5%
viability, T/C (second compound 0.316 µM, first compound 0.00316 µM): 91.3%
viability, T/C (second compound 0.316 µM, first compound 0.01 µM): 85.5%
viability, T/C [15]: 69.7%
viability, T/C [16]: 44.7%
viability, T/C [17]: 30.1%
viability, T/C [18]: 11.7%
viability, T/C (second compound 1 µM, first compound 0.00316 µM): 86.2%
viability, T/C (second compound 1 µM, first compound 0.01 µM): 88%
viability, T/C [19]: 63.2%
viability, T/C [20]: 44.8%
viability, T/C [21]: 28.2%
viability, T/C [22]: 12.1%
viability, T/C (second compound 3.16 µM, first compound 0.00316 µM): 65.6%
viability, T/C (second compound 3.16 µM, first compound 0.01 µM): 54.8%
viability, T/C [23]: 60.9%
viability, T/C [24]: 43.7%
viability, T/C [25]: 21.3%
viability, T/C [26]: 9.02%
viability, T/C (second compound 10 µM, first compound 0.00316 µM): 100%
viability, T/C (second compound 10 µM, first compound 0.01 µM): 90.2%
viability, T/C [27]: 70.7%
viability, T/C [28]: 54.2%
viability, T/C [29]: 19.2%
viability, T/C [30]: 7.2%
